Experimental data from ChEMBL document CHEMBL4118139, “Novel naphthyloxy derivatives - Potent histamine H3 receptor ligands. Synthesis and pharmacological evaluation” (Bioorg Med Chem, 2018).
Activity calls are given as the source filed them. The rule behind the calls is not given here.

How the values were obtained:
Mus musculus [1] = assay: Anticonvulsant activity in albino CF-1 mouse assessed as protection against maximal electroshock-induced seizures at 50 mg/kg, ip after 0.5 hrs; assay type: functional, organism-based
[2] = biological target: D(2) dopamine receptor (Homo sapiens) (UniProt P14416); assay: Displacement of [3H]-spiperone from human dopamine D2 receptor expressed in CHO cell membranes at 1 uM relative to haloperidol
Chain of D(2) dopamine receptor (Homo sapiens) (P14416 whole entry): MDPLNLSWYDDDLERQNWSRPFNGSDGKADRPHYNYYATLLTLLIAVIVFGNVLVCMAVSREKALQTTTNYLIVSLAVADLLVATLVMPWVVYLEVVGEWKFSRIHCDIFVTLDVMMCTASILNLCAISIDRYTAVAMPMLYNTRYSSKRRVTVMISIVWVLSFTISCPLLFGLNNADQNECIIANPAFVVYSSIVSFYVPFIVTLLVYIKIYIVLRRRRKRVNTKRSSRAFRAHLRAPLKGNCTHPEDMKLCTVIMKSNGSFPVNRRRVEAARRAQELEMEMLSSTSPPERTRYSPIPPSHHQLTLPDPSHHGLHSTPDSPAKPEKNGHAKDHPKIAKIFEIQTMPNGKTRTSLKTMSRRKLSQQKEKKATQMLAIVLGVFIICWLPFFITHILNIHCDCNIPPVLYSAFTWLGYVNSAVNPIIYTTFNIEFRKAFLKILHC

Rattus norvegicus [3] = assay: Anticonvulsant activity in po dosed Sprague-Dawley rat assessed as protection against maximal electroshock-induced seizures after 1 hr; assay type: functional
Rattus norvegicus [4] = assay: Anticonvulsant activity in Sprague-Dawley rat assessed as protection against maximal electroshock-induced seizures at 65 mg/kg, po after 0.25 hrs; assay type: functional, organism-based
Mus musculus [5] = assay: Neurotoxicity in albino CF-1 mouse at 30 mg/kg, ip after 0.5 hrs by rotarod test; assay type: toxicity, organism-based; details: in vivo
Mus musculus [6] = assay: Neurotoxicity in albino CF-1 mouse at 50 mg/kg after 2 hrs by rotarod test; assay type: toxicity, organism-based; details: in vivo
Rattus norvegicus [7] = assay: In vivo antagonist activity at H3 receptor in RAMH-induced dipsogenic ip dosed Wistar (Krf:(WI) WU) rat model assessed as inhibition of RAMH-water intake administered 30 mins prior to RAMH induction; assay type: functional
Mus musculus [8] = assay: Neurotoxicity in albino CF-1 mouse at 65 mg/kg after 0.5 hrs by rotarod test; assay type: toxicity, organism-based; details: in vivo
Mus musculus [9] = assay: Induction of sedative effect in albino Swiss CD-1 mouse at 15 mg/kg, ip; assay type: organism-based; details: in vivo
Mus musculus [10] = assay: Anticonvulsant activity in ip dosed albino CF-1 mouse assessed as protection against subcutaneous pentylenetetrazole-induced seizures measured after 1 hr; assay type: functional; details: CF-1, 1 h
[11] = biological target: 5-hydroxytryptamine receptor 2A (Homo sapiens, UniProt P28223); assay: Displacement of [3H]-ketanserin from human 5-HT2A receptor expressed in CHO cell membranes after 1 hr
Chain of 5-hydroxytryptamine receptor 2A (P28223 whole entry): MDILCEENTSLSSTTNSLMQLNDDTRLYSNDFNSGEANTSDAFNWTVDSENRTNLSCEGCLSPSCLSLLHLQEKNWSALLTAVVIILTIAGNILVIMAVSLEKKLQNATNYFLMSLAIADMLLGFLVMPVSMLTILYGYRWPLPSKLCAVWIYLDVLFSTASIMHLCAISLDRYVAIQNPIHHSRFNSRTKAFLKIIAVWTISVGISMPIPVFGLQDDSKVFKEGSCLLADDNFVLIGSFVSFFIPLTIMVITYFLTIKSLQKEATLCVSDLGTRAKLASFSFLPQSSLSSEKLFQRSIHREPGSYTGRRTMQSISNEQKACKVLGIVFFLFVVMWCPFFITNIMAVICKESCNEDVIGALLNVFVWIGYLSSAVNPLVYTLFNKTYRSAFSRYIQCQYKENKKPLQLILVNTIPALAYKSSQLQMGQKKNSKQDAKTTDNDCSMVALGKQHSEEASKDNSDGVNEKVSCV

Mus musculus [12] = assay: Anticonvulsant activity in albino CF-1 mouse assessed as protection against 44 mA current-induced seizure at 50 mg/kg, ip after 2 hrs by 6 Hz psychomotor test; assay type: functional, organism-based
Mus musculus [13] = assay: Anticonvulsant activity in ip dosed albino CF-1 mouse assessed as protection against 32 mA current-induced seizure after 1 hr by 6 Hz psychomotor test; assay type: functional; details: CF-1, ip
Mus musculus [14] = assay: Anticonvulsant activity in albino CF-1 mouse assessed as protection against subcutaneous pentylenetetrazole-induced seizures at 50 mg/kg, ip measured after 4 hrs; assay type: functional, organism-based
Rattus norvegicus [15] = assay: Anticonvulsant activity in po Sprague-Dawley rat assessed as protection against subcutaneous pentylenetetrazole-induced seizures measured after 1 hr; assay type: functional
Mus musculus [16] = assay: Neurotoxicity in albino CF-1 mouse assessed as increase in subcutaneous pentylenetetrazole-induced continuous seizures at 50 mg/kg, ip measured after 1 hr; assay type: toxicity, organism-based; details: in vivo
Rattus norvegicus [17] = assay: Anticonvulsant activity in ip dosed Sprague-Dawley rat assessed as protection against maximal electroshock-induced seizures after 0.25 hrs; assay type: functional
[18] = biological target: D(3) dopamine receptor (Homo sapiens) (UniProt P35462); assay: Displacement of [3H]-spiperone from human dopamine D3 receptor expressed in CHO cell membranes at 1 uM relative to haloperidol
Chain of D(3) dopamine receptor (Homo sapiens) (P35462 whole entry): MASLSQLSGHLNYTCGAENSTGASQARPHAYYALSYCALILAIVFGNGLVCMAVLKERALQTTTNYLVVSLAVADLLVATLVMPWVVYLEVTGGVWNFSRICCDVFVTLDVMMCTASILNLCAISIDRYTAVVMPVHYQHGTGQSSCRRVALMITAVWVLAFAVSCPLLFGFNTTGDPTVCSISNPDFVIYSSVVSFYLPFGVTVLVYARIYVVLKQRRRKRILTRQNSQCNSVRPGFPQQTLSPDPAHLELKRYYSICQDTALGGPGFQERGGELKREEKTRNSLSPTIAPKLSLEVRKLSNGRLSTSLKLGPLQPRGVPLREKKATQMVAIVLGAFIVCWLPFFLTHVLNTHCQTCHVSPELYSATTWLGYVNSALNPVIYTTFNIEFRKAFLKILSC

Rattus norvegicus [19] = assay: Anticonvulsant activity in Sprague-Dawley rat assessed as protection against maximal electroshock-induced seizures at 30 mg/kg, po after 0.25 hrs; assay type: functional, organism-based
Salmonella typhimurium [20] = assay: Mutagenicity in Salmonella typhimurium TA100 assessed as increase in number of revertants at 1 uM after 90 mins by Ames test; assay type: toxicity, organism-based; details: salmonella enterica subsp. enterica serovar typhimurium, 1.5 h
Mus musculus [21] = assay: Neurotoxicity in albino CF-1 mouse assessed as increase in subcutaneous pentylenetetrazole-induced continuous seizures at 50 mg/kg, ip measured after 0.25 hrs; assay type: toxicity, organism-based; details: in vivo
Mus musculus [22] = assay: Neurotoxicity in albino CF-1 mouse at 50 mg/kg, ip after 2 hrs by rotarod test; assay type: toxicity, organism-based; details: in vivo
Mus musculus [23] = assay: Anticonvulsant activity in ip dosed albino CF-1 mouse assessed as protection against maximal electroshock-induced seizures after 1 hr; assay type: functional; details: CF-1, ip
Mus musculus [24] = assay: Neurotoxicity in albino CF-1 mouse at 50 mg/kg after 0.5 hrs by rotarod test; assay type: toxicity, organism-based; details: in vivo
Rattus norvegicus [25] = assay: Anticonvulsant activity in Sprague-Dawley rat assessed as protection against maximal electroshock-induced seizures at 30 mg/kg, ip after 2 hrs; assay type: functional, organism-based
Rattus norvegicus [26] = assay: Anticonvulsant activity in ip Sprague-Dawley rat assessed as protection against subcutaneous pentylenetetrazole-induced seizures measured after 0.25 hrs; assay type: functional
Mus musculus [27] = assay: Anticonvulsant activity in albino CF-1 mouse assessed as protection against maximal electroshock-induced seizures at 50 mg/kg, ip after 4 hrs; assay type: functional, organism-based
Mus musculus [28] = assay: Neurotoxicity in albino CF-1 mouse at 65 mg/kg after 1 hr by rotarod test; assay type: toxicity, organism-based; details: in vivo
Mus musculus [29] = assay: Neurotoxicity in albino CF-1 mouse assessed as increase in subcutaneous pentylenetetrazole-induced continuous seizures at 50 mg/kg, ip measured after 2 hrs; assay type: toxicity, organism-based; details: in vivo
Mus musculus [30] = assay: Anticonvulsant activity in ip dosed albino CF-1 mouse assessed as protection against 44 mA current-induced seizure after 0.25 hrs by 6 Hz psychomotor test; assay type: functional; details: CF-1, ip
Rattus norvegicus [31] = assay: Anticonvulsant activity in Sprague-Dawley rat assessed as protection against maximal electroshock-induced seizures at 30 mg/kg, ip after 1 hr; assay type: functional, organism-based
Rattus norvegicus [32] = assay: Anticonvulsant activity in Sprague-Dawley rat assessed as protection against maximal electroshock-induced seizures at 30 mg/kg, po after 4 hrs; assay type: functional, organism-based
[33] = Neurotoxicity in po dosed Sprague-Dawley rat after 0.25 hrs by rotarod test; assay type: toxicity, organism-based; details: in vivo
Mus musculus [34] = assay: Anticonvulsant activity in albino CF-1 mouse assessed as protection against maximal electroshock-induced seizures at 50 mg/kg, ip after 1 hr; assay type: functional, organism-based
HepG2 = assay: Cytotoxicity against human HepG2 cells assessed as reduction in cell viability after 72 hrs by MTS assay; assay type: cell-based; details: HepG2, 72 h
Mus musculus [35] = assay: Effect on spontaneous locomotor activity in ip dosed albino Swiss CD1 mouse assessed as inhibition of number of light beam crossings treated for 30 mins measured for next 30 mins in 10 min intervals; assay type: organism-based; details: in vivo, 0.5 h
Mus musculus [36] = assay: Neurotoxicity in albino CF-1 mouse at 50 mg/kg after 0.25 hrs by rotarod test; assay type: toxicity, organism-based; details: in vivo
[37] = Therapeutic index, ratio of ip dosed Sprague-Dawley rat TD50 to ip dosed Sprague-Dawley rat ED50 for MES assay; assay type: toxicity, organism-based; details: in vivo, read-out: TI
Mus musculus [38] = assay: Analgesic activity in ip dosed albino Swiss CD1 mouse assessed reduction in formalin-induced inflammatory pain by measuring reduction in time spent in licking treated prior to formalin injection measured at 0 to 5 mins post formalin injection; assay type: functional
[39] = Therapeutic index, ratio of ip dosed albino CF-1 mouse TD50 to ip dosed albino CF-1 mouse ED50 for MES assay; assay type: toxicity, organism-based; details: in vivo, read-out: TI
Salmonella typhimurium [40] = assay: Mutagenicity in Salmonella typhimurium TA100 assessed as increase in number of revertants at 10 uM after 90 mins by Ames test; assay type: toxicity, organism-based; details: salmonella enterica subsp. enterica serovar typhimurium, 1.5 h
Rattus norvegicus [41] = assay: Anticonvulsant activity in Sprague-Dawley rat assessed as protection against maximal electroshock-induced seizures at 30 mg/kg, po after 0.5 hrs; assay type: functional, organism-based
[42] = Therapeutic index, ratio of ip dosed albino CF-1 mouse TD50 to ip dosed albino CF-1 mouse ED50 for 44 mA current-induced 6 Hz psychomotor test; assay type: toxicity, organism-based; details: in vivo, read-out: TI
Mus musculus [43] = assay: Neurotoxicity in albino CF-1 mouse at 30 mg/kg, ip after 0.25 hrs by rotarod test; assay type: toxicity, organism-based; details: in vivo

Structure (SMILES): c1ccc2c(OCCCCCN3CCCCC3)cccc2c1
- Activity (Mus musculus [1]): Active
- inhibition [2]: 2%
- ED50 (Rattus norvegicus [3]): 78.1 mg/kg
- Activity (Rattus norvegicus [4]): inactive
- Activity (Mus musculus [5]): Non-Toxic
- Activity (Mus musculus [6]): Non-Toxic
- ED50 (Rattus norvegicus [7]): 2.37 mg/kg
- Activity (Mus musculus [8]): Non-Toxic
- Activity (Mus musculus [9]): Toxic
- ED50 (Mus musculus [10]): > 100 mg/kg
- Ki [11]: 3.91 µM
- Activity (Mus musculus [12]): inactive
- ED50 (Mus musculus [13]): 33.1 mg/kg
- Activity (Mus musculus [14]): inactive
- ED50 (Rattus norvegicus [15]): > 250 mg/kg
- Activity (Mus musculus [16]): Non-Toxic
- ED50 (Rattus norvegicus [17]): 17.8 mg/kg
- inhibition [18]: 12%
- Activity (Rattus norvegicus [19]): inactive
- Activity (Salmonella typhimurium [20]): Non-Toxic
- Activity (Mus musculus [21]): Non-Toxic
- Activity (Mus musculus [22]): Non-Toxic
- ED50 (Mus musculus [23]): 19.2 mg/kg
- Activity (Mus musculus [24]): Non-Toxic
- Activity (Rattus norvegicus [25]): Active
- ED50 (Rattus norvegicus [26]): > 60.6 mg/kg
- Activity (Mus musculus [27]): inactive
- Activity (Mus musculus [28]): Non-Toxic
- Activity (Mus musculus [29]): Non-Toxic
- ED50 (Mus musculus [30]): 57.2 mg/kg
- Activity (Rattus norvegicus [31]): Active
- Activity (Rattus norvegicus [32]): inactive
- TD50 at 0.25 h [33]: > 500 mg/kg
- Activity (Mus musculus [34]): Active
- IC50 (HepG2): > 50 µM
- ED50 (Mus musculus [35]): 11.43 mg/kg
- Activity (Mus musculus [36]): Non-Toxic
- selectivity ratio [37]: 3.4
- ED50 (Mus musculus [38]): 31.1 mg/kg
- selectivity ratio [39]: 4.9
- Activity (Salmonella typhimurium [40]): Non-Toxic
- Activity (Rattus norvegicus [41]): inactive
- selectivity ratio [42]: 1.6
- Activity (Mus musculus [43]): Non-Toxic
